Consider one molecule from patent publication US20170327471A1, “Aryl sulphide and aryl sulphoxide derivatives having C-C-attached uracils as pesticides” (BAYER CROPSCIENCE AKTIENGESELLSCHAFT, priority 2014, published 2017).

Like-named read-outs stand apart in the source and are kept apart here.

Data set [1] can be described thus: logP by reversed-phase HPLC (EEC Directive 79/831 Annex V.A8). The class given is physicochemical. Conditions: reversed-phase C18 HPLC column. As for the experimental part: The logP values were determined in accordance with EEC Directive 79/831 Annex V.A8 by HPLC (High Performance Liquid Chromatography) using reversed-phase columns (C 18) by the following methods:
^[a] The LC-MS determination in the acidic range was effected at pH 2.7 with 0.1% aqueous formic acid and acetonitrile (contains 0.1% formic acid) as eluents; linear gradient from 10% acetonitrile to 95% acetonitrile. Called logP (HCOOH) in the table.
^[b] LC-MS determination in the neutral range was effected at pH 7.8 with 0.001 molar aqueous ammonium hydrogencarbonate solution and acetonitrile as eluents; linear gradient from 10% acetonitrile to 95% acetonitrile. Called logP (neutral) in the table.
Calibration was effected with unbranched alkan-2-ones (having 3 to 16 carbon atoms) with known logP values (logP values determined on the basis of the retention times by linear interpolation between two successive alkanones).

For data set [2], the system named is Boophilus microplus. As to the kind of experiment: Boophilus microplus injection test. The data set is classed as in vivo. The settings on record: application rate, injection into engorged adult female cattle ticks, after 7 days. How it is done: 1. Boophilus microplus—Injection Test Solvent: dimethyl sulphoxide
To produce a suitable preparation of active compound, 10 mg of active compound are mixed with 0.5 ml of solvent and the concentrate is diluted with solvent to the desired concentration.
1 μl of the active compound solution is injected into the abdomen of 5 engorged adult female cattle ticks (Boophilus microplus). The animals are transferred into dishes and kept in a climate-controlled room.
Efficacy is assessed after 7 days by laying of fertile eggs. Eggs which are not visibly fertile are stored in a climate-controlled cabinet until the larvae hatch after about 42 days. An efficacy of 100% means that none of the ticks has laid any fertile eggs; 0% means that all the eggs are fertile.

For data set [3], the system named is Meloidogyne incognita. In words: Meloidogyne incognita test (sand, lettuce, solvent acetone). The class given is in vivo. The settings on record: application rate 20 ppm, after 14 days, lettuce in sand. As for the experimental part:
2. Meloidogyne incognita Test Solvent: 125.0 parts by weight of acetone To produce a suitable preparation of active compound, 1 part by weight of active compound is mixed with the stated amount of solvent and the concentrate is diluted with water to the desired concentration. Vessels are filled with sand, active compound solution, an egg/larvae suspension of the southern root-knot nematode (Meloidogyne incognita) and lettuce seeds. The lettuce seeds germinate and the plants develop. The galls develop on the roots. After 14 days, the nematicidal efficacy in % is determined by the formation of galls. 100% means that no galls were found; 0% means that the number of galls on the treated plants corresponds to the untreated control.

Data set [4] deals with Tetranychus urticae. In words: Tetranychus urticae spray test, OP-resistant (bean leaf discs). The settings on record: application rate 500 g/ha, after 6 days. The data set is classed as in vivo. As for the experimental part:
4. Tetranychus urticae—Spray Test, OP-Resistant Solvent: 78.0 parts by weight of acetone • • 1.5 parts by weight of dimethylformamide Emulsifier: alkylaryl polyglycol ether
To produce a suitable preparation of active compound, 1 part by weight of active compound is dissolved using the stated parts by weight of solvent and made up with water containing an emulsifier concentration of 1000 ppm until the desired concentration is attained. To produce further test concentrations, the preparation is diluted with emulsifier-containing water.
Discs of bean leaves (Phaseolus vulgaris) infested with all stages of the greenhouse red spider mite (Tetranychus urticae) are sprayed with an active compound preparation of the desired concentration.
After 6 days, the efficacy in % is determined. 100% means that all the spider mites have been killed; 0% means that none of the spider mites have been killed.

In data set [5] the test system is Tetranychus urticae. As to the kind of experiment: Tetranychus urticae spray test, OP-resistant (bean plants). The data set is classed as in vivo. The settings on record: application rate 20 ppm, after 7 days. As for the experimental part: 5. Tetranychus urticae-Spray Test, OP-Resistant Solvent: 7 parts by weight of dimethylformamide Emulsifier: alkylaryl polyglycol ether
To produce a suitable preparation of active compound, 1 part by weight of active compound is dissolved using the stated parts by weight of solvent and made up with water containing an emulsifier concentration of 1000 ppm until the desired concentration is attained. To produce further test concentrations, the preparation is diluted with emulsifier-containing water. If the addition of ammonium salts or/and penetrants is required, these are each added in a concentration of 1000 ppm to the preparation solution.
Bean plants (Phaseolus vulgaris) heavily infested by all stages of the greenhouse red spider mite (Tetranychus urticae) are sprayed with an active compound preparation of the desired concentration.
After 7 days, the efficacy in % is determined. 100% means that all the spider mites have been killed; 0% means that none of the spider mites have been killed.

The subject of data set [6] is Tetranychus urticae. In words: Tetranychus urticae drench test, OP-resistant. The data set is classed as in vivo. Conditions: application rate 4 ppm, after 14 days, bean plants in soil. How it is done:
6. Tetranychus urticae—Drench Test, OP-Resistant Solvent: 7 parts by weight of dimethylformamide Emulsifier: 2 parts by weight of alkylaryl polyglycol ether
To produce a suitable preparation of active compound, 1 part by weight of active compound is mixed with the stated amounts of solvent and emulsifier, and the concentrate is diluted with water to the desired concentration, where the volume of soil to be drenched has to be taken into account. Here, it has to be made sure that a concentration of 40 ppm of emulsifier in the soil is not exceeded. To produce further test concentrations, the mixture is diluted with water.
Bean plants (Phaseolus vulgaris) in pots filled with soil, which plants are heavily infested by all stages of the greenhouse red spider mite (Tetranychus urticae), are watered with an active compound preparation of the desired concentration.
After 14 days, the efficacy in % is assessed. 100% means that all spider mites have been killed; 0% means that none of the spider mites have been killed.

Data set [7] relates to Meloidogyne incognita. As to the kind of experiment: Meloidogyne incognita test (soil drench, lettuce). The data set is classed as in vivo. The settings on record: application rate 8 ppm, after 21 days, lettuce in soil (loamy sand). How it is done:
7. Meloidogyne incognita—Test Solvent: 7 parts by weight of dimethylformamide Emulsifier: 2.5 parts by weight of alkylaryl polyglycol ether To produce a suitable preparation of active compound, 1 part by weight of active compound is mixed with the stated amounts of solvent and emulsifier, and the concentrate is diluted with water to the desired concentration, where the volume of soil to be drenched has to be taken into account. Here, it has to be made sure that a concentration of 20 ppm of emulsifier in the soil is not exceeded. To produce further test concentrations, the mixture is diluted with water. Pots filled with soil (loamy sand) are watered with the active compound solution. An egg/larvae suspension of the southern root-knot nematode (Meloidogyne incognita) is added, lettuce seeds are scattered on the surface of the soil and covered with quartz sand. The lettuce seeds germinate and the plants develop. The galls develop on the roots. After 21 days, the nematicidal efficacy in % is determined by the formation of galls. 100% means that no galls were found; 0% means that the number of galls on the treated plants corresponds to that of the untreated control.

Data set [8] relates to Panonychus ulmi. As to the kind of experiment: Panonychus ulmi spray test. The data set is classed as in vivo. The settings on record: application rate 20 ppm, after 14 days, plum trees. How it is done:
8. Panonychus ulmi—Spray Test Solvent: 7 parts by weight of dimethylformamide Emulsifier: alkylaryl polyglycol ether To produce a suitable preparation of active compound, 1 part by weight of active compound is dissolved in the parts by weight of solvent stated and filled with water containing an emulsifier concentration of 1000 ppm until the desired concentration is reached. To prepare further test concentrations, the mixture is diluted with emulsifier-containing water. If the addition of ammonium salts and/or penetrants (rapeseed oil methyl ester) is required, these are, after dilution of the finished preparation solution, added using a pipette, at a concentration of in each case 1000 ppm. Plum trees (Prunus domestica), infested by a mixed population of the European red mite (Panonychus ulmi) are treated by spraying with the active compound preparation of the desired concentration. After 14 days, the kill in % is determined. 100% means that all spider mites have been killed; 0% means that none of the spider mites have been killed.

For the molecule `Cc1cc(F)c(-c2cc(=O)n(C)c(=O)n2C)cc1[S+]([O-])CC(F)(F)F` (stereo not drawn) [Example I-1, 6-{2-Fluoro-4-methyl-5-[(2,2,2-trifluoroethyl)sulphinyl]phenyl}-1,3-dimethylpyrimidine-2,4(1H,3H)-dione], the chromatographic logP in data set [1] (acidic range, pH 2.7, 0.1% aqueous formic acid/acetonitrile, read-out: logP (HCOOH) = logP[a]) was 1.77; in data set [1] (neutral range, pH 7.8, 0.001 molar aqueous ammonium hydrogencarbonate/acetonitrile, read-out: logP (neutral) = logP[b]), 1.75. Also, the “efficacy (no fertile eggs laid)” value in data set [2] was determined as 100%. Further, the “nematicidal efficacy (formation of galls)” value in data set [3] was determined as 100%; in data set [7] it was 90%. Besides, the “efficacy (spider mites killed)” value in data set [4], in data set [5] and in data set [6] was 100% each time. Also, the “efficacy (kill of spider mites)” value in data set [8] amounted to 100%.
